ChEMBL document CHEMBL1157528, “Mixed tetraoxanes containing the acetone subunit as antimalarials” (Bioorg Med Chem, 2008)
Active and inactive are the calls of the source. The rule behind the calls is not given here.

Key:
Plasmodium falciparum [1] = experiment: microbe, parasite or virus in culture; settings: W2
Description: Antimalarial activity against chloroquine and pyrimethamine-resistant Plasmodium falciparum W2

[2] = Metabolic stability in human liver microsomes assessed as half life at 10 uM; type: ADME, Microsome
Plasmodium falciparum [3] = experiment: microbe, parasite or virus in culture; settings: D6
Description: Antimalarial activity against chloroquine and pyrimethamine-sensitive Plasmodium falciparum D6

[4] = Metabolic stability in mouse liver microsomes assessed as half life at 10 uM; type: ADME, Microsome
A498 = experiment: Antiproliferative activity against human A498 cells; type: functional
Plasmodium falciparum [5] = experiment: microbe, parasite or virus in culture; settings: RCS
Description: Antimalarial activity against chloroquine-resistant, mefloquine-sensitive Plasmodium falciparum RCS

Plasmodium falciparum [6] = experiment: microbe, parasite or virus in culture; settings: TM91C235
Description: Antimalarial activity against mefloquine, chloroquine and quinine-resistant Plasmodium falciparum TM91C235

[7] = Cytotoxicity against human NCI60 cells; type: functional
Plasmodium falciparum [8] = experiment: Relative activity against Plasmodium falciparum W2 as ratio of IC90 to IC50; type: functional
Plasmodium falciparum [9] = experiment: Relative activity against Plasmodium falciparum TM91C235 as fold-lower IC90/IC50 ratio relative to mefloquine
Plasmodium berghei [10] = experiment: Antimalarial activity as survival time in Plasmodium berghei KBG173 infected CD1 mice (Mus musculus) at 20 mg/kg/day peroral dose; type: functional; settings: route oral
Plasmodium berghei [11] = experiment: Antimalarial activity as parasite-free survivors at day 31 of Plasmodium berghei KBG173 infected CD1 mice (Mus musculus) at 20 mg/kg/day peroral dose; type: functional, organism-based
Plasmodium berghei [12] = experiment: Antimalarial activity as survival time in Plasmodium berghei KBG173 infected CD1 mice (Mus musculus) at 320 mg/kg/day peroral dose; type: functional; settings: route oral
Plasmodium berghei [13] = experiment: Antimalarial activity as parasite-free survivors at day 31 of Plasmodium berghei KBG173 infected CD1 mice (Mus musculus) at 320 mg/kg/day peroral dose; type: functional, organism-based
Plasmodium berghei [14] = experiment: Antimalarial activity as survival time against Plasmodium berghei KBG173 infected CD1 mice (Mus musculus) at 80 mg/kg/day peroral dose 3 - 5 days post infection; type: functional; settings: route oral

CCCNC(=O)CC[C@@H](C)[C@H]1CC[C@H]2[C@@H]3[C@H](OC(C)=O)C[C@@H]4CC5(CC[C@]4(C)[C@H]3C[C@H](OC(C)=O)[C@]12C)OOC(C)(C)OO5
IC50 (Plasmodium falciparum [1]): 18.1 nM | IC90 (Plasmodium falciparum [1]): 29.2 nM | half-life at 10 µM [2]: 24 min | IC50 (Plasmodium falciparum [3]): 7.4 nM | IC90 (Plasmodium falciparum [3]): 16.2 nM | half-life at 10 µM [4]: 25 min

C[C@H](CCC(N)=O)[C@H]1CC[C@H]2[C@@H]3[C@H](O)C[C@@H]4CC5(CC[C@]4(C)[C@H]3C[C@H](O)[C@]12C)OOC(C)(C)OO5
IC50 (Plasmodium falciparum [1]): 153 nM | IC90 (Plasmodium falciparum [1]): 234 nM | half-life at 10 µM [2]: > 60 min | GI50 (A498): 92 nM | TGI (A498): 710 nM | CC50 (A498; read-out: LC50 (the source's name)): 11.5 µM | IC50 (Plasmodium falciparum [5]): 38.7 nM | IC90 (Plasmodium falciparum [5]): 168 nM | IC50 (Plasmodium falciparum [3]): 215 nM | IC90 (Plasmodium falciparum [3]): 347 nM | IC50 (Plasmodium falciparum [6]): 228 nM | IC90 (Plasmodium falciparum [6]): 498 nM | GI50 [7]: 0.98 µM | LC50 [7]: 11.2 µM | TGI [7]: 3.8 µM | half-life at 10 µM [4]: > 60 min

C[C@@H]1CC[C@H]2[C@@H](C)C(=O)O[C@@H]3O[C@@]4(C)CC[C@@H]1[C@]32OO4 [ARTEMISININ]
IC50 (Plasmodium falciparum [1]): 6.7 nM | IC90 (Plasmodium falciparum [1]): 11.5 nM | IC90 (Plasmodium falciparum [5]): 13 nM | IC50 (Plasmodium falciparum [3]): 9 nM | IC90 (Plasmodium falciparum [3]): 12.8 nM | IC90 (Plasmodium falciparum [6]): 13 nM

O[C@@H](c1cc(C(F)(F)F)nc2c(C(F)(F)F)cccc12)[C@H]1CCCCN1 [MEFLOQUINE]
Ratio (Plasmodium falciparum [8]): 1.71 | IC50 (Plasmodium falciparum [5]): 2.33 nM | IC90 (Plasmodium falciparum [5]): 5 nM | fold-lower IC90/IC50 ratio vs mefloquine (Plasmodium falciparum [9]): 1.5

CC(=O)O[C@H]1C[C@H]2[C@@H]([C@H](OC(C)=O)C[C@@H]3CC4(CC[C@@]32C)OOC(C)(C)OO4)[C@@H]2CC[C@H]([C@H](C)CCC(=O)N(C)C)[C@@]12C
IC50 (Plasmodium falciparum [1]): 17.3 nM | IC90 (Plasmodium falciparum [1]): 31.6 nM | half-life at 10 µM [2]: 49 min | IC50 (Plasmodium falciparum [5]): 7.19 nM | IC90 (Plasmodium falciparum [5]): 14 nM | IC50 (Plasmodium falciparum [3]): 35.5 nM | IC90 (Plasmodium falciparum [3]): 71.5 nM | IC50 (Plasmodium falciparum [6]): 25.1 nM | IC90 (Plasmodium falciparum [6]): 50.9 nM | GI50 [7]: 17 µM | LC50 [7]: 75.9 µM | TGI [7]: 41.7 µM | half-life at 10 µM [4]: 17 min

CC(=O)O[C@H]1C[C@H]2[C@@H]([C@H](OC(C)=O)C[C@@H]3CC4(CC[C@@]32C)OOC(C)(C)OO4)[C@@H]2CC[C@H]([C@H](C)CCC(=O)O)[C@@]12C
Survival (Plasmodium berghei [10]): 10 days | IC50 (Plasmodium falciparum [1]): 36 nM | IC90 (Plasmodium falciparum [1]): 94.7 nM | half-life at 10 µM [2]: > 60 min | Activity (Plasmodium berghei [11]): inactive | Survival (Plasmodium berghei [12]): 17 days | Activity (Plasmodium berghei [13]): inactive | IC50 (Plasmodium falciparum [3]): 46.5 nM | IC90 (Plasmodium falciparum [3]): 96.3 nM | IC50 (Plasmodium falciparum [6]): 60.4 nM | IC90 (Plasmodium falciparum [6]): 231 nM | GI50 [7]: 15.5 µM | LC50 [7]: 75.9 µM | TGI [7]: 37.1 µM | Survival (Plasmodium berghei [14]): 15 days | half-life at 10 µM [4]: > 60 min

CNC(=O)CC[C@@H](C)[C@H]1CC[C@H]2[C@@H]3[C@H](OC(C)=O)C[C@@H]4CC5(CC[C@]4(C)[C@H]3C[C@H](OC(C)=O)[C@]12C)OOC(C)(C)OO5
IC50 (Plasmodium falciparum [1]): 18.1 nM | IC90 (Plasmodium falciparum [1]): 20.7 nM | half-life at 10 µM [2]: > 60 min | IC50 (Plasmodium falciparum [5]): 11.6 nM | IC90 (Plasmodium falciparum [5]): 22.3 nM | IC50 (Plasmodium falciparum [3]): 46.9 nM | IC90 (Plasmodium falciparum [3]): 78.3 nM | IC50 (Plasmodium falciparum [6]): 31.3 nM | IC90 (Plasmodium falciparum [6]): 74.8 nM | GI50 [7]: 4.47 µM | LC50 [7]: 47.9 µM | TGI [7]: 18.2 µM | half-life at 10 µM [4]: > 60 min
